The text below walks through data of patent publication US6906098B2, “Mixed steroidal 1,2,4,5-tetraoxane compounds and methods of making and using thereof” (priority 2002, dated 2005).

Molecules are shown by their SMILES. In brackets after ≈: the same amount, converted by molar mass. Like-named read-outs stand apart in the source and are kept apart here.

One assay deals with M. tuberculosis H37Rv. As to the kind of experiment: Minimum inhibitory concentration (MIC) in the MABA. The class given is cell-based, Mycobacterium tuberculosis. Here is the method: (§1) The activity of the compounds of the present invention against Mycobacterium tuberculosis was determined using the following assays conducted by the National Institute of Allergy and Infectious Diseases (NIAID) supports a TB drug acquisition and screening program, the TAACF.
2. Minimum Inhibitory Concentration (MIC)
The MIC is defined as the lowest concentration effecting a reduction in fluorescence of 90% relative to controls. Minimum compound requirements: 1.0 mg.

Assay [1] concerns Mycobacterium tuberculosis H37Rv (ATCC 27294). As to the kind of experiment: Primary screen, Microplate Alamar Blue Assay (MABA), percent inhibition. The class given is cell-based. Conditions: primary screening at 6.25 μg/ml; for inhibition at 6.25 µg/mL: Mycobacterium tuberculosis. As to the method:
as §1
To determine the percent inhibition the following assay was conducted. Primary screening was conducted at 6.25 μg/ml (or the molar equivalent of highest molecular weight compound in a given series of congeners) against Mycobacterium tuberculosis H37Rv (ATCC 27294) in BACTEC 12B medium using the Microplate Alamar Blue Assay (MABA). See Collins, L. and S. G. Franzblau. 1997. Microplate alamar blue assay versus BACTEC 460 system for high-throughput screening of compounds against Mycobacterium tuberculosis and Mycobacterium avium. Antimicrob Agents Chemother 41:1004-9, which is herein incorporated by reference.
Minimum compound requirements: 1.0 mg.
(Alamar Blue is a resazurin reagent that responds to reducing activity.)

The subject of assay [2] is D6 and W2 P. falciparum clones. The class given is cell-based, Plasmodium falciparum. Conditions: IC50 (W2)/IC50 (D6) ratio.
Assay [3] concerns Plasmodium falciparum chloroquine-resistant strain W2. As to the kind of experiment: microbe, parasite or virus in culture. The class given is cell-based. The following applies: for Strain W2 IC50: growth inhibition, chloroquine-resistant strain W2, 66 h incubation; for IC50: Plasmodium falciparum, W2, 66 h, read-out: Strain W2 IC50, growth inhibition, chloroquine-resistant strain W2, 66 h incubation.

Assay [4] relates to Plasmodium falciparum chloroquine-susceptible strain D6. As to the kind of experiment: In vitro antimalarial drug susceptibility assay (radiolabeled hypoxanthine incorporation), strain D6. The class given is cell-based. The following applies: for Strain D6 IC50: growth inhibition, chloroquine-susceptible strain D6, 66 h incubation; for IC50: Plasmodium falciparum, D6, 66 h, read-out: Strain D6 IC50, growth inhibition, chloroquine-susceptible strain D6, 66 h incubation.

[5] abbreviates: Table 5, Alamar assay, M. tuberculosis H37Rv.
Where [6] appears, read: Mycobacterium tuberculosis, H37RV, Table 3, H37Rv, read-out: MIC.
[7] abbreviates: Mycobacterium tuberculosis, H37RV, Table 5, Alamar assay, M. tuberculosis H37Rv, read-out: MIC.
Where [8] appears, read: Table 3, H37Rv, read-out: Inhibition (%).
Setting [9] is: Table 5, Alamar assay, read-out: % Inhib.

With `COC(=O)CCC(C)[C@H]1CCC2C3C(C[C@H](OC(C)=O)[C@@]21C)[C@@]1(C)CCC2(C[C@H]1C[C@H]3OC(C)=O)OOC1(CCC(c3ccccc3)CC1)OO2` (single isomer, unassigned) [Compound 1B14b, Methyl 7α,12α-diacetoxy-5β-cholan-24-oate-3-spiro-6′-(1′,2′,4′,5′-tetraoxacyclohexane)-3′-spiro-1″-((4″R or S)- and (4″S or R)-phenyl)cyclohexane], the MIC was greater than 6.25 µg/mL in the assay with M. tuberculosis H37Rv (Table 3, H37Rv) and greater than 6.25 µg/mL in the assay on M. tuberculosis H37Rv (setting [5]). Moreover, the “Inhibition (%)” value in assay [1] (Table 3, H37Rv) is listed as 46%. In assay [1] (Table 5, Alamar assay), the “% Inhib” value is recorded as 46%. Also, in assay [2], the “Resistance Index” value came to 0.79. Further, in assay [3], the “Strain W2 IC50” value worked out at 0.025 µg/mL. Moreover, in assay [4], the “Strain D6 IC50” value worked out at 0.03176 µg/mL.
For `CCNC(=O)CCC(C)[C@H]1CCC2C3C(C[C@H](OC(C)=O)[C@@]21C)[C@@]1(C)CCC2(C[C@H]1C[C@H]3OC(C)=O)OOC1(CCC(c3ccccc3)CC1)OO2` (single isomer, unassigned) [Compound 1C47, N-Ethyl-7α,12α-Diacetoxy-5β-cholan-24-amide-3-spiro-6′-(1′,2′,4′, 5′-tetraoxacyclohexane)-3′-spiro-1″-((4″R or S)-phenyl)cyclohexane], the MIC in the assay with M. tuberculosis H37Rv (setting [6]) and in the assay on M. tuberculosis H37Rv (setting [7]) was greater than 6.25 µg/mL throughout. The inhibition at 6.25 µg/mL in assay [1] (setting [8]) and in assay [1] (setting [9]) was 50% in each case. In assay [2], the “Resistance Index” value amounted to 1.08. In addition, in assay [3], the “Strain W2 IC50” value came to 0.00587 µg/mL. Besides, the “Strain D6 IC50” value in assay [4] was 0.00541 µg/mL.
Turning to `CCCNC(=O)CCC(C)[C@H]1CCC2C3C(C[C@H](OC(C)=O)[C@@]21C)[C@@]1(C)CCC2(C[C@H]1C[C@H]3OC(C)=O)OOC1(CCC(c3ccccc3)CC1)OO2` (single isomer, unassigned) [Compound 1C48, N-(n-Propyl)-7α,12α-Diacetoxy-5β-cholan-24-amide-3-spiro-6′-(1′,2′,4′,5′-tetraoxacyclohexane)-3′-spiro-1″-((4″R or S)-phenyl)cyclohexane], the minimum inhibitory concentration (MIC) with M. tuberculosis H37Rv (setting [6]) and in the assay with M. tuberculosis H37Rv (setting [7]) was greater than 6.25 µg/mL in each case. In addition, the inhibition at 6.25 µg/mL in assay [1] (setting [8]) and in assay [1] (setting [9]) was 46% throughout. Further, the “Resistance Index” value in assay [2] amounted to 1.02. Moreover, in assay [3], the “Strain W2 IC50” value turned out to be 0.00672 µg/mL. Besides, the “Strain D6 IC50” value in assay [4] was 0.00659 µg/mL.
In the case of `CC(=O)O[C@H]1CC2C(C3CC[C@H](C(C)CCC(=O)O)[C@]31C)[C@H](OC(C)=O)C[C@@H]1CC3(CC[C@]21C)OOC1(CCC(c2ccccc2)CC1)OO3` (single isomer, unassigned) [Compound 1C49, 7α,12α-Diacetoxy-5β-cholan-24-oic acid-3-spiro-6′-(1′,2′,4′,5′-tetraoxacyclohexane)-3′-spiro-1″-((4″S or R)-phenyl)cyclohexane], the minimum inhibitory concentration (MIC) against M. tuberculosis H37Rv (Table 3, H37Rv) is greater than 6.25 µg/mL; in the assay with M. tuberculosis H37Rv (setting [5]) it was greater than 6.25 µg/mL. Moreover, in assay [1] (Table 3, H37Rv), the “Inhibition (%)” value amounted to 89%. Also, the “% Inhib” value in assay [1] (Table 5, Alamar assay) stood at 89%. For the same molecule, in assay [2], the “Resistance Index” value is recorded as 0.81. Further, the “Strain W2 IC50” value in assay [3] worked out at 0.04385 µg/mL. Besides, in assay [4], the “Strain D6 IC50” value was 0.05424 µg/mL.
`CC(=O)O[C@H]1CC2C(C3CC[C@H](C(C)CCC(N)=O)[C@]31C)[C@H](OC(C)=O)C[C@@H]1CC3(CC[C@]21C)OOC1(CCC(c2ccccc2)CC1)OO3` (single isomer, unassigned) [Compound 1C50, 7α,12α-Diacetoxy-5β-cholan-24-amide-3-spiro-6′-(1′,2′,4′,5′-tetraoxacyclohexane)-3′-spiro-1″-((4″S or R)-phenyl)cyclohexane]: the minimum inhibitory concentration (MIC) was 6.25 µg/mL (≈ 8.98 µM) in the assay on M. tuberculosis H37Rv (Table 3, H37Rv) and greater than 6.25 µg/mL in the assay on M. tuberculosis H37Rv (setting [5]). The “Inhibition (%)” value in assay [1] (Table 3, H37Rv) was 87%. Also, the “% Inhib” value in assay [1] (Table 5, Alamar assay) was found to be 87%. For the same molecule, the “Resistance Index” value in assay [2] came out at 0.92. The “Strain W2 IC50” value in assay [3] came out at 0.03746 µg/mL. Besides, the “Strain D6 IC50” value in assay [4] turned out to be 0.04049 µg/mL.
`CNC(=O)CCC(C)[C@H]1CCC2C3C(C[C@H](OC(C)=O)[C@@]21C)[C@@]1(C)CCC2(C[C@H]1C[C@H]3OC(C)=O)OOC1(CCC(c3ccccc3)CC1)OO2` (single isomer, unassigned) [Compound 1C51, N-Methyl-7α,12α-Diacetoxy-5β-cholan-24-amide-3-spiro-6′-(1′,2′,4′,5′-tetraoxacyclohexane)-3′-spiro-1″-((4″S or R)-phenyl)cyclohexane]: the MIC with M. tuberculosis H37Rv (Table 3, H37Rv) was greater than 6.25 µg/mL; in the assay on M. tuberculosis H37Rv (setting [5]), greater than 6.25 µg/mL. Besides, in assay [1] (Table 3, H37Rv), the “Inhibition (%)” value stood at 61%. Also, in assay [1] (Table 5, Alamar assay), the “% Inhib” value was determined as 61%. Further, the “Resistance Index” value in assay [2] is reported as 0.85. In assay [3], the “Strain W2 IC50” value is 0.05472 µg/mL. For the same molecule, in assay [4], the “Strain D6 IC50” value was determined as 0.06462 µg/mL.
Turning to `CCNC(=O)CCC(C)[C@H]1CCC2C3C(C[C@H](OC(C)=O)[C@@]21C)[C@@]1(C)CCC2(C[C@H]1C[C@H]3OC(C)=O)OOC1(CCC(c3ccccc3)CC1)OO2` (single isomer, unassigned) [Compound 1C52, N-Ethyl-7α,12α-Diacetoxy-5β-cholan-24-amide-3-spiro-6′-(1′,2′,4′,5′-tetraoxacyclohexane)-3′-spiro-1″-((4″S or R)-phenyl)cyclohexane], the MIC is greater than 6.25 µg/mL in the assay on M. tuberculosis H37Rv (Table 3, H37Rv) and greater than 6.25 µg/mL in the assay on M. tuberculosis H37Rv (setting [5]). Moreover, in assay [1] (Table 3, H37Rv), the “Inhibition (%)” value is 62%. The “% Inhib” value in assay [1] (Table 5, Alamar assay) is given as 62%. Besides, in assay [2], the “Resistance Index” value stood at 0.99. In addition, the “Strain W2 IC50” value in assay [3] was 0.03258 µg/mL. The “Strain D6 IC50” value in assay [4] amounted to 0.03279 µg/mL.
Turning to `CCCNC(=O)CCC(C)[C@H]1CCC2C3C(C[C@H](OC(C)=O)[C@@]21C)[C@@]1(C)CCC2(C[C@H]1C[C@H]3OC(C)=O)OOC1(CCC(c3ccccc3)CC1)OO2` (single isomer, unassigned) [Compound 1C53, N-(n-Propyl)-7α,12α-Diacetoxy-5β-cholan-24-amide-3-spiro-6′-(1′,2′,4′,5′-tetraoxacyclohexane)-3′-spiro-1″-((4″S or R)-phenyl)cyclohexane], the MIC was greater than 6.25 µg/mL with M. tuberculosis H37Rv (Table 3, H37Rv) and greater than 6.25 µg/mL in the assay with M. tuberculosis H37Rv (setting [5]). Also, in assay [1] (Table 3, H37Rv), the “Inhibition (%)” value amounted to 59%. For the same molecule, the “% Inhib” value in assay [1] (Table 5, Alamar assay) worked out at 59%. Moreover, in assay [2], the “Resistance Index” value came out at 1.01. Also, in assay [3], the “Strain W2 IC50” value turned out to be 0.02454 µg/mL. Besides, in assay [4], the “Strain D6 IC50” value amounted to 0.02428 µg/mL.
Turning to `COC(=O)CCC(C)[C@H]1CCC2C3C(C[C@H](OC(C)=O)[C@@]21C)[C@@]1(C)CCC2(C[C@H]1C[C@H]3OC(C)=O)OOC1(CCCC1)OO2` (stereo partly drawn) [8a/1B04, Methyl 7α,12α-Diacetoxy-5β-cholan-24-oate-3-spiro-6′-(1′,2′,4′,5′-tetraoxacyclohexane)-3′-spirocyclopentane], in the assay on M. tuberculosis H37Rv (setting [7]), the MIC was greater than 6.25 µg/mL. The inhibition at 6.25 µg/mL in assay [1] (setting [9]) was determined as 0%. Further, the “Resistance Index” value in assay [2] came to 0.71. For the same molecule, the 50% inhibitory concentration (IC50) in assay [3] was determined as 0.0172 µg/mL (≈ 0.0277 µM); in assay [4], 0.0243 µg/mL (≈ 0.0391 µM).
For `COC(=O)CCC(C)[C@H]1CCC2C3C(C[C@H](OC(C)=O)[C@@]21C)[C@@]1(C)CCC2(C[C@H]1C[C@H]3OC(C)=O)OOC1(CCCCC1)OO2` (stereo partly drawn) [8b/1B05, Methyl 7α,12α-Diacetoxy-5β-cholan-24-oate-3-spiro-6′-(1′,2′,4′,5′-tetraoxacyclohexane)-3′-spirocyclohexane], in that order: greater than 6.25 µg/mL, 0%, 0.79, 0.0108 µg/mL (≈ 0.017 µM) and 0.0136 µg/mL (≈ 0.0215 µM).
Take `COC(=O)CCC(C)[C@H]1CCC2C3C(C[C@H](OC(C)=O)[C@@]21C)[C@@]1(C)CCC2(C[C@H]1C[C@H]3OC(C)=O)OOC1(CC(C)CCC1C(C)C)OO2` (stereo partly drawn) [8f/1B10, Methyl 7α,12α-diacetoxy-5β-cholan-24-oate-3-spiro-6′-(1′,2′,4′,5′-tetraoxacyclohexane)-3′-spiro-1″-(−)-menthane]: the MIC in the assay with M. tuberculosis H37Rv (setting [7]) is greater than 6.25 µg/mL. Moreover, the inhibition at 6.25 µg/mL in assay [1] (setting [9]) was 0%. Besides, the “Resistance Index” value in assay [2] is on record as 0.47. Besides, the IC50 in assay [3] stood at 0.0506 µg/mL (≈ 0.0732 µM); in assay [4] it was 0.107 µg/mL (≈ 0.154 µM).
For `CC(=O)O[C@H]1CC2C(C3CC[C@H](C(C)CCC(=O)O)[C@]31C)[C@H](OC(C)=O)C[C@@H]1CC3(CC[C@]21C)OOC1(CCCCC1)OO3` (stereo partly drawn) [9b/1C15, 70α,12α-Diacetoxy-5β-cholan-24-oic acid-3-spiro-6′-(1′,2′,4′,5′-tetraoxacyclohexane)-3′-spirocyclohexane], in that order: greater than 6.25 µg/mL, 33%, 0.63, 0.0119 µg/mL (≈ 0.0192 µM) and 0.019 µg/mL (≈ 0.0306 µM).

As a reminder, the MIC is the least concentration at which growth counts as inhibited. Usually IC50 stands for the midpoint of a concentration-inhibition curve.
